Tests used:
[1] = tested on: widespread pain in the neck, back and arms associated with fibromyalgia; experiment: Case report: patient with fibromyalgia pain, oral treatment at H.S.; format: in vivo, human; details: person; analgesic taken by itself, before combination treatment
[2] = tested on: widespread pain in the neck, shoulders, arms and legs; experiment: Case report: patient with widespread pain, headaches, non-restorative sleep and fatigue, oral treatment at H.S.; format: in vivo, human; details: person; before combination treatment

| SMILES | response of pain to analgesic by itself [1] | response of pain to analgesic alone [2] |
| --- | --- | --- |
| CC(=O)Nc1ccc(O)cc1 [acetaminophen] | unresponsive |  |
| CC(=O)Oc1ccccc1C(=O)O [aspirin] | unresponsive |  |
| CC(C)Cc1ccc(C(C)C(=O)O)cc1 (stereo not drawn) [ibuprofen] |  | unresponsive |
